In US20240415819A1, “MACROCYCLIC COMPOUNDS AS PROTEASOME SUBUNIT BETA TYPE-5 INHIBITORS” (Lead Discovery Center GmbH, priority 2021, published 2024):
Where two headings read alike, the source gives them in different places.

Assays:
[1] = biological target: T1, β5 subunit of the human constitutive proteasome (CPS) (Homo sapiens, UniProt P28074); assay: β5 inhibition assay, human constitutive proteasome (Suc-LLVY-AMC); type: biochemical; conditions: IC50 class, Suc-LLVY-AMC substrate
T1 construct: purchased Boston Biochem E-360
Procedure: The enzymatic activity of the β5 subunit of the human constitutive proteasome (CPS) is analyzed. In another assay, which differs from the assay of the human constitutive proteasome only in using the human immunoproteasome (IPS) the enzymatic activity of the β5 subunit of the human immunoproteasome (IPS) is analyzed. […] Inhibition is indicated as IC50 [nM] (“-”=not measured).

[2] = biological target: T2, β5 subunit of the human immunoproteasome (IPS) (Homo sapiens, UniProt P28062); assay: β5 inhibition assay, human immunoproteasome (Suc-LLVY-AMC); type: biochemical; conditions: IC50 class, Suc-LLVY-AMC substrate
T2 construct: purchased Boston Biochem E-370
Method in brief: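 β5 activity is read as liberated AMC fluorescence (355/460 nm) after 4 h dark reaction at RT with 22.6 μM Suc-LLVY-AMC, stopped by 1 μM bortezomib. Beforehand, 1 nM human IPS and compound sat 10 min at RT in HEPES pH 7.5 buffer containing NaCl, 0.02% SDS and DTT.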

[3] = system: A549 (human lung carcinoma cell line); assay: Glo assay of A549 cells (Table 3; ProteasomeGlo plating scheme); type: cell-based; conditions: Homo sapiens
Method in brief: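 Luminescent read-out of cellular chymotrypsin-like proteasome activity: cells exposed to compound 105 min at 37° C., 5% CO2, then given Suc-LLVY-Glo reagent, shaken 2-5 min and kept dark 10-15 min before reading. Values are IC50 [nM].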

[4] = system: Hs 746T (human gastric carcinoma cell line); assay: 48 hr CTG viability assay, Hs 746T; type: cell-based; conditions: Hs746T
Method in brief: (§1)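 Growth inhibition by compound over 48 h; IC50 (nM) derived from duplicate CellTiter-Glo luminescence readings across 0.0015–10 uM.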

[5] = system: MM1 S (B lymphoblast cell line); assay: 48 hr CTG viability assay, MM1S; type: cell-based; conditions: Homo sapiens
Method in brief: as §1

[6] = system: RPMI 8226 (B lymphocyte cell line, multiple myeloma); assay: 48 hr CTG viability assay, RPMI 8226; type: cell-based; conditions: Homo sapiens
Method in brief: as §1

[7] = A549 cells, read-out: PGLo A549
[8] = 48 hr CTG, read-out: Hs 746T IC50
[9] = RPMI-8226, 48 hr CTG, read-out: RPMI-8226 IC50

Row | Compound | IC50 [1] | IC50 [2] | IC50 [3, 7] | IC50 [4, 8] | IC50 ([5]; 48 hr CTG, read-out: MM1S IC50) | IC50 [6, 9] | IC50 ([3]; A549, read-out: PGLo A549 [nM]) | IC50 ([4]; 48 h, read-out: Hs 746T IC50 [nM]) | IC50 ([5]; 48 h, read-out: MM1S IC50 [nM]) | IC50 ([6]; RPMI-8226, 48 h, read-out: RPMI-8226 IC50 [nM])
1 | Cc1ccc2cc1CNC(=O)[C@H](CCc1ccccc1)NC(=O)[C@@H](NC(=O)Cc1ccccc1)CCN(C)C(=O)N1CCCC(CCO2)C1 (stereo partly drawn) [Compound 696, N-((9S,12S)-5^4,15-dimethyl-8,11,16-trioxo-9-phenethyl-4-oxa-7,10,15-triaza-1(3,1)-piperidina-5(1,3)-benzenacyclohexadecaphane-12-yl)-2-phenylacetamide] | < 100 nM | < 100 nM |  |  |  |  | < 100 nM | < 100 nM | < 100 nM | < 100 nM
2 | Cc1ccc2cc1CNC(=O)[C@H](CCc1ccccc1)NC(=O)[C@@H](NC(=O)CCNCCC1CC3CCC1C3)CC(=O)N1CCCC(CCO2)C1 (stereo partly drawn) [Compound 698, 3-((2-(bicyclo[2.2.1]heptan-2-yl)ethyl)amino)-N-((9S,12S)-5^4-methyl-8,11,14-trioxo-9-phenethyl-4-oxa-7,10-diaza-1(3,1)-piperidina-5(1,3)-benzenacyclotetradecaphane-12-yl)propanamide] | < 100 nM | < 100 nM | < 100 nM | < 100 nM | < 100 nM | < 100 nM |  |  |  | 
3 | COc1cccc(COCCC(=O)N[C@H]2CC(=O)N3CCCC(CCOc4ccc(C)c(c4)CNC(=O)[C@H](CCc4ccccc4)NC2=O)C3)c1 (stereo partly drawn) [Compound 585, 3-((3-methoxybenzyl)oxy)-N-((9S,12S)-5^4-methyl-8,11,14-trioxo-9-phenethyl-4-oxa-7,10-diaza-1(3,1)-piperidina-5(1,3)-benzenacyclotetradecaphane-12-yl)propanamide] | < 100 nM | < 100 nM | < 100 nM | < 100 nM | < 100 nM | < 100 nM |  |  |  | 
4 | COc1ccccc1CCOCCC(=O)N[C@H]1CC(=O)N2CCCC(CCOc3ccc(C)c(c3)CNC(=O)[C@H](CCc3ccccc3)NC1=O)C2 (stereo partly drawn) [Compound 582, 3-(2-methoxyphenethoxy)-N-((9S,12S)-5^4-methyl-8,11,14-trioxo-9-phenethyl-4-oxa-7,10-diaza-1(3,1)-piperidina-5(1,3)-benzenacyclotetradecaphane-12-yl)propanamide] | < 100 nM | < 100 nM | < 100 nM | < 100 nM | < 100 nM | < 100 nM |  |  |  | 
5 | Cc1ccc2cc1CNC(=O)[C@H](C1Cc3ccccc3C1)NC(=O)[C@@H](NC(=O)Cc1cn3ccsc3n1)CC(=O)N1CCCC(CCO2)C1 (stereo partly drawn) [Compound 602, N-((9S,12S)-9-(2,3-dihydro-1H-inden-2-yl)-5^4-methyl-8,11,14-trioxo-4-oxa-7,10-diaza-1(3,1)-piperidina-5(1,3)-benzenacyclotetradecaphane-12-yl)-2-(imidazo[2,1-b]thiazol-6-yl)acetamide] | < 100 nM | < 100 nM | < 100 nM | < 100 nM | < 100 nM | < 100 nM |  |  |  | 
6 | Cc1ccc2cc1CNC(=O)[C@H](CCc1ccccc1)NC(=O)[C@@H](NC(=O)Cc1ccccc1)CCOC(=O)N1CCCC(CCO2)C1 (stereo partly drawn) [Compound 624, N-((9S,12S)-5^4-methyl-8,11,16-trioxo-9-phenethyl-4,15-dioxa-7,10-diaza-1(3,1)-piperidina-5(1,3)-benzenacyclohexadecaphane-12-yl)-2-phenylacetamide] | < 100 nM | < 100 nM | < 100 nM | < 100 nM | < 100 nM | < 100 nM |  |  |  | 
7 | COc1ccc(OCCC(=O)N[C@H]2CC(=O)N3CCCC(CCOc4ccc(C)c(c4)CNC(=O)[C@H](CCc4ccccc4)NC2=O)C3)cc1 (stereo partly drawn) [Compound 622, 3-(4-methoxyphenoxy)-N-((9S,12S)-5^4-methyl-8,11,14-trioxo-9-phenethyl-4-oxa-7,10-diaza-1(3,1)-piperidina-5(1,3)-benzenacyclotetradecaphane-12-yl)propanamide] | < 100 nM | < 100 nM | < 100 nM | < 100 nM | < 100 nM | < 100 nM |  |  |  | 
8 | Cc1ccc2cc1CNC(=O)[C@H](CCc1ccccc1)NC(=O)[C@@H](NC(=O)CCNCc1ccc(N3CCN(Cc4ccccc4)CC3)cc1)CC(=O)N1CCCC(CCO2)C1 (stereo partly drawn) [Compound 699, 3-((4-(4-benzylpiperazin-1-yl)benzyl)amino)-N-((9S,12S)-5^4-methyl-8,11,14-trioxo-9-phenethyl-4-oxa-7,10-diaza-1(3,1)-piperidina-5(1,3)-benzenacyclotetradecaphane-12-yl)propanamide] | < 100 nM | < 100 nM | < 100 nM | < 100 nM | < 100 nM | < 100 nM |  |  |  | 

The next lines start with results.

Row | IC50 [1] | IC50 [2] | IC50 [3, 7] | IC50 [4, 8] | IC50 ([5]; 48 hr CTG, read-out: MM1S IC50) | IC50 [6, 9] | Compound | IC50 ([3]; A549, read-out: PGLo A549 [nM]) | IC50 ([4]; 48 h, read-out: Hs 746T IC50 [nM]) | IC50 ([5]; 48 h, read-out: MM1S IC50 [nM]) | IC50 ([6]; RPMI-8226, 48 h, read-out: RPMI-8226 IC50 [nM])
9 | < 100 nM | < 100 nM | < 100 nM | < 100 nM | < 100 nM | < 100 nM | Cc1ccc2cc1CNC(=O)[C@H](CCc1ccccc1)NC(=O)[C@@H](NC(=O)CCN1CCC3(CCC3)CC1)CC(=O)N1CCCC(CCO2)C1 (stereo partly drawn) [Compound 638, N-((9S,12S)-5^4-methyl-8,11,14-trioxo-9-phenethyl-4-oxa-7,10-diaza-1(3,1)-piperidina-5(1,3)-benzenacyclotetradecaphane-12-yl)-3-(7-azaspiro[3.5]nonan-7-yl)propanamide] |  |  |  | 
10 | < 100 nM | < 100 nM | < 100 nM | < 100 nM | < 100 nM | < 100 nM | Cc1ccc2cc1CNC(=O)[C@H](CCc1ccccc1)NC(=O)[C@@H](NC(=O)N1CCCc3cc(N)ccc31)CC(=O)N1CCCC(CCO2)C1 (stereo partly drawn) [Compound 667, 6-amino-N-((9S,12S)-5^4-methyl-8,11,14-trioxo-9-phenethyl-4-oxa-7,10-diaza-1(3,1)-piperidina-5(1,3)-benzenacyclotetradecaphane-12-yl)-3,4-dihydroquinoline-1(2H)-carboxamide] |  |  |  | 
11 | < 100 nM | < 100 nM | < 100 nM | < 100 nM | < 100 nM | < 100 nM | Cc1ccc2cc1CNC(=O)[C@H](CCc1ccccc1)NC(=O)[C@@H](NC(=O)N1CC(O)C1)CC(=O)N1CCCC(CCO2)C1 (stereo partly drawn) [Compound 691, 3-hydroxy-N-((9S,12S)-5^4-methyl-8,11,14-trioxo-9-phenethyl-4-oxa-7,10-diaza-1(3,1)-piperidina-5(1,3)-benzenacyclotetradecaphane-12-yl)azetidine-1-carboxamide] |  |  |  | 
12 | < 100 nM | < 100 nM | < 100 nM | < 100 nM | < 100 nM | < 100 nM | Cc1ccc2cc1CNC(=O)[C@H](CCc1ccccc1)NC(=O)[C@@H](NC(=O)CCN1CC3(CCOCC3)C1)CC(=O)N1CCCC(CCO2)C1 (stereo partly drawn) [Compound 658, N-((9S,12S)-5^4-methyl-8,11,14-trioxo-9-phenethyl-4-oxa-7,10-diaza-1(3,1)-piperidina-5(1,3)-benzenacyclotetradecaphane-12-yl)-3-(7-oxa-2-azaspiro[3.5]nonan-2-yl)propanamide] |  |  |  | 
13 | < 100 nM | < 100 nM | < 100 nM | < 100 nM | < 100 nM | < 100 nM | Cc1ccc2cc1CNC(=O)[C@H](CCc1ccccc1)NC(=O)[C@@H](NS(=O)(=O)Cc1ccccc1F)CC(=O)N1CCCC(CCO2)C1 (stereo partly drawn) [Compound 636, 1-(2-fluorophenyl)-N-((9S,12S)-5^4-methyl-8,11,14-trioxo-9-phenethyl-4-oxa-7,10-diaza-1(3,1)-piperidina-5(1,3)-benzenacyclotetradecaphane-12-yl)methanesulfonamide] |  |  |  | 
14 | 1000 to 5000 nM | 100 to 500 nM | 1000 to 5000 nM | > 5000 nM | 1000 to 5000 nM | 1000 to 5000 nM | Cc1ccc2cc1CNC(=O)[C@H](CCc1ccccc1)NC(=O)[C@@H](N1CCCCC1=O)CC(=O)N1CCCC(CCO2)C1 (stereo partly drawn) [Compound 734, (9S,12S)-5^4-methyl-12-(2-oxopiperidin-1-yl)-9-phenethyl-4-oxa-7,10-diaza-1(3,1)-piperidina-5(1,3)-benzenacyclotetradecaphane-8,11,14-trione] |  |  |  | 
15 | < 100 nM | < 100 nM | < 100 nM | < 100 nM | < 100 nM | < 100 nM | Cc1ccc2cc1CNC(=O)[C@H](CCc1ccccc1)NC(=O)[C@@H](NC(=O)N1CC(C)(O)C1)CC(=O)N1CCCC(CCO2)C1 (stereo partly drawn) [Compound 669, 3-hydroxy-3-methyl-N-((9S,12S)-5^4-methyl-8,11,14-trioxo-9-phenethyl-4-oxa-7,10-diaza-1(3,1)-piperidina-5(1,3)-benzenacyclotetradecaphane-12-yl)azetidine-1-carboxamide] |  |  |  | 
